The values below come from patent US20150320748A1, “AGENT FOR INHIBITING EXPRESSION OF LIPID METABOLISM RELATED MRNA” (KOWA CO., LTD., priority 2011, published 2015).

Experiment [1] deals with T1, cholesterol ester transfer protein (CETP) (Homo sapiens, UniProt P11597).
T1 sequence (P11597 18-493): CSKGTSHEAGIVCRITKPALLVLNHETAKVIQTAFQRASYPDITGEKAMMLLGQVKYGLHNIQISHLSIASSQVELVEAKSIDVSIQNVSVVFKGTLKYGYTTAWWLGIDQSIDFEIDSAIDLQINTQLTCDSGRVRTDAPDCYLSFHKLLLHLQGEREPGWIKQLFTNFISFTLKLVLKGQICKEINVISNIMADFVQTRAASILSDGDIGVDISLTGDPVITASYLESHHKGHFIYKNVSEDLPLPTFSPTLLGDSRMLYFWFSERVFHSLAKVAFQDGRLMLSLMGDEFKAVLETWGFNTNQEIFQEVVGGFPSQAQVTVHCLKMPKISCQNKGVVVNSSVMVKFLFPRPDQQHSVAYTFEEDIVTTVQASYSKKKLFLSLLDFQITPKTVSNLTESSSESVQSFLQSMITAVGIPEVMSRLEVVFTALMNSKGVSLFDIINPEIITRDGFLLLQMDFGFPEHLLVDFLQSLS
Description: CETP inhibitory effect. Type of experiment: biochemical. The conditions noted are these: no method or values printed.

In a further experiment the test system is SCD-1 mRNA. Briefly: Expression level of SCD-1 mRNA in HepG2 cells by real-time quantitative RT-PCR. The experiment is classed as cell-based, human. To be noted: 0.1, 1, 10 mM DMSO solutions added at 1 to 1000, corrected by β-Actin mRNA, FIG. 3.
A further experiment deals with SREBP1c mRNA. Briefly: Expression level of SREBP1c mRNA in HepG2 cells by real-time quantitative RT-PCR. The experiment is classed as cell-based, human. The conditions noted are these: 0.1, 1, 10 mM DMSO solutions added at 1 to 1000, corrected by β-Actin mRNA, FIG. 2.

Description for SCD-1 mRNA: More specifically, the HepG2 cells were seeded on a 24-well plate at a concentration of 2×10^5 cells/well, and cultured overnight. […] The mixture was cultured for 8 hours in a CO2 incubator at 37° C., and then 500 μL of ISOGEN (Nippon Gene Co., Ltd., catalogue No. 31-02501) was added, and the total RNA was extracted. From the extracted total RNA, cDNA was synthesized using High Capacity cDNA Reverse Transcription kit (Applied Biosystems, catalogue No. 4368813). The expression level of human SCD-1 was measured using a primer 5′-[sequence]-3′ (SEQ ID NO. 6), an antisense primer 5′-[sequence]-3′ (SEQ ID NO. 7), which are specific to human SCD-1, and Fast SYBR Green master mix (Applied Biosystems, catalogue No. 4385614). The measurement instrument was 7900HT Fast Realtime PCR system.
The measurement value was corrected by the expression level of β-Actin mRNA.
Description for SREBP1c mRNA: The test compound 2 was added to the HepG2 cells of human liver cancer cell line, cultured for 24 hours, and then the expression level of SREBP1c mRNA was measured by real-time quantitative RT-PCR. More specifically, the HepG2 cells were seeded on a 24-well plate at a concentration of 2×10^5 cells/well, and cultured overnight. The test compound 2 was dissolved in dimethyl sulf oxide (DMSO) at concentrations of 0.1 mM, 1 mM, and 10 mM, and added to the culture solution at the rate of 1 to 1000. The mixture was cultured for 8 hours in a CO2 incubator at 37° C., and then 500 μL of ISOGEN (Nippon Gene Co., Ltd., catalogue No. 31-02501) was added, and the total RNA was extracted. […] The expression level of human SREBP1c mRNA was measured using a TaqMan probe 5′-[sequence]-3′ (SEQ ID NO. 3), a sense primer: 5′-[sequence]-3′ (SEQ ID NO. 4), and an antisense primer 5′-[sequence]-3′ (SEQ ID NO. 5), which are specific to human SREBP1c, and TaqMan Fast Universal PCR Master Mix (Applied Biosystems, catalogue No. 4367846). […]
The measurement value was corrected by the expression level of β-Actin mRNA. The expression level of SREBP1c mRNA in the cells mixed with DMSO alone was set at 1, and the expression level of SREBP1c mRNA in the cells mixed with the test compound 2 was calculated as relative value.

Turning to `COc1cc(F)c(C(C)C)cc1-c1ccc(C(F)(F)F)cc1CN1C(=O)O[C@H](c2cc(C(F)(F)F)cc(C(F)(F)F)c2)[C@@H]1C` [Anacetrapib, (4S,5R) -5-[3,5-bis(trifluoromethyl)phenyl]-3-({2-[4-fluoro-2-methoxy-5-(propane-2-yl)phenyl]-5-(trifluoromethyl)phenyl}methyl)-4-methyl-1,3-oxazolidine-2-one, reference compound], in experiment [1], the “CETP inhibitory effect (test compound 2 compared with Anacetrapib)” value is on record as “equal”.

On to `CCN(C[C@H]1CC[C@H](CC(=O)O)CC1)c1ccc(C(F)(F)F)cc1CN(c1ncc(OCCS(C)(=O)=O)cn1)[C@@H](C)c1cc(C(F)(F)F)cc(C(F)(F)F)c1` [compound 2], for which, in experiment [1], the “CETP inhibitory effect (test compound 2 compared with Anacetrapib)” value is “equal”. The “decrease of the expression level of SCD-1 mRNA (relative value, DMSO alone = 1)” value in the experiment on SCD-1 mRNA is recorded as “evidently stronger than that of Anacetrapib”. In the experiment with SREBP1c mRNA, the “decrease of the expression level of SREBP1c mRNA (relative value, DMSO alone = 1)” value is “evidently stronger than that of Anacetrapib”.
